Experimental data as given in PMC11801377, “A uniquely efficacious type of CFTR corrector with complementary mode of action” (Science Advances, 2024).

Tests used:
CFTR mRNA = CFTR mRNA quantification in CFBE cells; format: cell-based, human; conditions: 24 hours, 2000 nM
Description: CFBE-F508del-CFTR cells were seeded at 70,000 cells per well in a FNC-coated 48-well plate and incubated for 24 hours with 2000 nM of indicated correctors or DMSO vehicle diluted in growth medium deprived of FBS but supplemented with 1% HSA. CFBE-WT-CFTR cells were treated with DMSO vehicle accordingly. Then, cells were washed twice with PBS^+ and lysed in RLT buffer (QIAGEN) for 10 min on ice. Lysates were fully homogenized with QIAshredder (#79656, QIAGEN), and total RNA was extracted with an RNeasy Mini kit (#74106, QIAGEN) following the manufacturer’s instruction. At the end, a deoxyribonuclease treatment was performed with a DNA-free kit (Invitrogen, AM1906) following the manufacturer’s instruction. A reverse transcription (150 ng of total RNA per sample) with random hexamers was performed with the high-capacity cDNA Reverse Transcription Kit (#4368814, Thermo Fisher Scientific) for 2 hours at 37°C. Three microliters of cDNA was mixed with 10 μl of TaqMan Fast Universal PCR (polymerase chain reaction) Master Mix (2×) No AmpErase UNG (4367848, Life Technologies) containing the probe of interest (1:20), and a quantitative PCR was run [20″ at 95°C; 3″ at 95°C to 30″ at 60°C (40 cycles)] on a 7500 Applied Biosystems device. […] Reference gene-normalized CFTR mRNA expression was calculated using ΔΔCt method with CFTR expression in vehicle-treated CFBE-F508del cells set to 1.

F508del-CFTR = F508del-CFTR (Homo sapiens, UniProt P13569, DEL508-508); assay: SILAC heavy pulse light-chase assay: ER CFTR folding efficiency in CFBE41o- cells; format: cell-based; conditions: 2.5-hour chase; 2 μM IDOR-3, 2 μM IDOR-4, 10 μM TEZ, 10 μM ELX, TEZ + ELX 10 μM each
F508del-CFTR, sequence (P13569 with tags, fused parts or gaps DEL508-508): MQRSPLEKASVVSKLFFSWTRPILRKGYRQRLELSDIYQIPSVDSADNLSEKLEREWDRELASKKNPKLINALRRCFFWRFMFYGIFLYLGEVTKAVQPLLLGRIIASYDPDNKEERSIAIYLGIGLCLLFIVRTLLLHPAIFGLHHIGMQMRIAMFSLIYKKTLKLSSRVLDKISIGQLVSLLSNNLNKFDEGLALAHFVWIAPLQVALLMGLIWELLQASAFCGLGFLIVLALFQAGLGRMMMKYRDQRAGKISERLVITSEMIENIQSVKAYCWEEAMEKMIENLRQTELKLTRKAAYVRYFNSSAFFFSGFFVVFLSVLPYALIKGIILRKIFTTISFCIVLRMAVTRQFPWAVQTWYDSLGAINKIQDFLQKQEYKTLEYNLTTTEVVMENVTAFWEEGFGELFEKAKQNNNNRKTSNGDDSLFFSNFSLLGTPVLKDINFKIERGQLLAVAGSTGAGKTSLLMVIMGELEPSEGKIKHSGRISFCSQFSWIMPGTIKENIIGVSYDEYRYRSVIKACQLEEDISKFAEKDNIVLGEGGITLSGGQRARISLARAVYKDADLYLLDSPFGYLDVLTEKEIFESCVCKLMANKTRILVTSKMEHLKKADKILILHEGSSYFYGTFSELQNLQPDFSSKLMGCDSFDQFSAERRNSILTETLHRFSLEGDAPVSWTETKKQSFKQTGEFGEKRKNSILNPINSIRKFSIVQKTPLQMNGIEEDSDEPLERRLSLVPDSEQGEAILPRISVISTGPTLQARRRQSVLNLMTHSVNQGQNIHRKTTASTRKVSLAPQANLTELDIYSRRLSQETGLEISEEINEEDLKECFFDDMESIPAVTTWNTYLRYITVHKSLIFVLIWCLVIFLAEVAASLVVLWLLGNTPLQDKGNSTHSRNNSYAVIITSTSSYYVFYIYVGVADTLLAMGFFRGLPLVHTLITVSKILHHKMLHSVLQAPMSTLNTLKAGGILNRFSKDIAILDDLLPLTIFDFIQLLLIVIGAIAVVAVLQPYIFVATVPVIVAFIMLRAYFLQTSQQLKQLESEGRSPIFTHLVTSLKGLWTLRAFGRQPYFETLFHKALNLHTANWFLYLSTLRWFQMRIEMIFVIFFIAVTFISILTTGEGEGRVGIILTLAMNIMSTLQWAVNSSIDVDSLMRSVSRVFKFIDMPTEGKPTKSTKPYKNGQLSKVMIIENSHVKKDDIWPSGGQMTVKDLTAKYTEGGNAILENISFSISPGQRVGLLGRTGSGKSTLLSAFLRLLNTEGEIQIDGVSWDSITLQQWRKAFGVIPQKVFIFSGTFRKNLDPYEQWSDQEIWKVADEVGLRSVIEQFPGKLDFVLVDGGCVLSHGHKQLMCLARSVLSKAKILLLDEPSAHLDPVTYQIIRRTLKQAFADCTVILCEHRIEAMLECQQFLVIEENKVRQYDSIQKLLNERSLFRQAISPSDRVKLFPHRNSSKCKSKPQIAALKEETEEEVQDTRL
Description: Stable isotope labeling using amino acids in cell culture (SILAC technology, Thermo Fisher Scientific) was used. For pulse-chase assays to determine CFTR folding efficiency at the ER, CFBE-F508del-CFTR or CFBE-WT-CFTR were seeded at 100,000 cells per well into a FNC-coated 24-well plate in CFBE growth medium and, the next day, incubated for 24 hours with “SILAC light medium” [arginine- and lysine-free RPMI 1640 #A33823, 84 mg/liter light L-arginine, # 89989, 146 mg/liter light L-lysine, #88429 and 20 mg/liter L-proline, # 89989 (to prevent a potential arginine-proline conversion)] supplemented with 10% dialyzed FBS. Cells were then washed once in PBS (37°C) and incubated for 1 hour with “starvation medium” (arginine-, lysine-free RPMI 1640, and 1% HSA) containing the indicated fixed concentrations of correctors. A 30-min metabolic pulse labeling was then performed by replacing the medium with “SILAC heavy medium” [arginine- and lysine-free RPMI 1640, L-proline (20 mg/liter), heavy L-arginine (84 mg/liter; ^13C6^15N4, #89990), heavy L-lysine (146 mg/liter; ^13C6^15N2, #88209), and 1% HSA] containing correctors. Cells were then washed with PBS and chased in SILAC light medium supplemented with 1% HSA and correctors. This medium was kept for 1, 2.5, 4, and 6 h of chase time followed by cell lysis in RIPA buffer as described above. […]

| Compound | effect on CFTR mRNA levels (CFTR mRNA) | B-to-C conversion rate (folding efficiency) (F508del-CFTR) [%] |
| --- | --- | --- |
| Cc1nn(C)cc1S(=O)(=O)NC(=O)c1ccc(-n2ccc(OCC(C)(C)C(F)(F)F)n2)nc1N1C[C@@H](C)CC1(C)C [ELX, elexacaftor] | neither macrocycles nor ELX/TEZ affected these levels | 6.7 |
| CC(C)(CO)c1cc2cc(NC(=O)C3(c4ccc5c(c4)OC(F)(F)O5)CC3)c(F)cc2n1C[C@@H](O)CO [TEZ, tezacaftor] | neither macrocycles nor ELX/TEZ affected these levels | 2.4 |
